{"source": "patent US20250320138A1", "about": "(priority 2022, published 2025)", "key": {"[1]": {"system": "chlorine-resistant Methylobacterium strain", "type": "cell-based, Methylobacterium fujisawaense"}, "[2]": {"system": "chlorine-resistant Methylobacterium strain", "type": "cell-based, Methylobacterium fujisawaense", "remark": "listed apart in the source"}}, "note": "Several values for one entry are separate records, joined by “and”; a condition that tells them apart may be missing. Identical values can stand only once."}
{"smiles": "O=[O+][O-]", "note": "[ozone]", "values": [{"measurement": "bactericidal rate", "setting": "[1]", "result": "0.0% and 9.4% and 2.1% and 5.0%"}, {"measurement": "inner structure of cell body (electron microscope)", "setting": "[2]", "result": "an organization is packed inside the cell body similarly to the blank"}]}
